Drawing on ChEMBL document CHEMBL5550146, “Design, synthesis, and biological evaluation of novel sesquiterpene lactone derivatives as PKM2 activators with potent anti-ulcerative colitis activities” (Eur J Med Chem, 2024), this text covers AC50, IC50 and Activity for 31 compounds.

One experiment concerns the target Pyruvate kinase PKM (Homo sapiens, UniProt P14618). Description: Activation of recombinant human PKM2 incubated for 40 mins by pyruvate kinase assay.
A further experiment relates to T-cell. The experiment is described as follows: Antiproliferative activity against concanavalin A-stimulated C57BL/6 mouse T cells measured after 48 hrs by CCK8 assay. The format is functional, cell-based. The settings on record: C57BL/6, T-cell.
The subject of a further experiment is Mus musculus. The experiment is described as follows: Antiinflammatory activity in DSS-induced colitis female C57BL/6 mouse model assessed as reduction in shortening of colon length at 200 mg/kg, ip administered for 12 days with subsequent treatment of DSS for 9 days followed by drinking water for 3 days. As to conditions: time 12.0 day. The format is functional, organism-based.

Active and inactive are the calls of the source. No cut-off for these calls is given here.

Pyruvate kinase PKM, sequence (P14618 whole entry): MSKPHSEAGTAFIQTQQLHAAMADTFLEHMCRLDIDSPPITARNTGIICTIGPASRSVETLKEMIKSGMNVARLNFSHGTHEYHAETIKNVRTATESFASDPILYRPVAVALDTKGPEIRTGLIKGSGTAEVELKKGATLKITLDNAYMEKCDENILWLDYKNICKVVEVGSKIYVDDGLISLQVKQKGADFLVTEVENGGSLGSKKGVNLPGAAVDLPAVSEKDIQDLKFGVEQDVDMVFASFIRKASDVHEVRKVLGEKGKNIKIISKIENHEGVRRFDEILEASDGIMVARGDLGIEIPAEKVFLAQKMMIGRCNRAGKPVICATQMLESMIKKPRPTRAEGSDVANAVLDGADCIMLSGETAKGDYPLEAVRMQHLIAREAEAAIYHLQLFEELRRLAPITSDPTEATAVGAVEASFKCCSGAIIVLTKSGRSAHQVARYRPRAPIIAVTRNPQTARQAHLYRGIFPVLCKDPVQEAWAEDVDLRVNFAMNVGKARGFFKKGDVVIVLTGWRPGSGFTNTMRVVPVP

In general, AC50 refers to the midpoint of the concentration-response curve, whichever way the signal moves. As a reminder, the IC50 is the midpoint of a concentration-inhibition curve. A low value points to greater potency in that assay. On to `C=C1C(=O)O[C@H]2[C@H]1CC/C(CNS(=O)(=O)c1ccccc1)=C\CC[C@@]1(C)O[C@@H]21`, for which the AC50 on Pyruvate kinase PKM amounted to 637 nM. In the experiment with T-cell, this compound yielded a half-inhibitory concentration (IC50) of 1200 nM. With `C=C1C(=O)O[C@H]2[C@H]1CC/C(COC(=O)NCCC)=C\CC[C@@]1(C)O[C@@H]21`, the AC50 on Pyruvate kinase PKM stood at 812 nM. Also, in the experiment on T-cell, it took 1270 nM to reach half-maximal inhibition (IC50). Consider `C=C1C(=O)O[C@H]2[C@H]1CC/C(C=O)=C\CC[C@@]1(C)O[C@@H]21`, for which the IC50 with T-cell is greater than 10000 nM. Regarding `C=C1C(=O)O[C@H]2[C@H]1CC/C(COC(=O)N1CCN(CC)CC1)=C\CC[C@@]1(C)O[C@@H]21`, the concentration at half-maximal activity (AC50) at Pyruvate kinase PKM is greater than 3000 nM. This compound also returned an IC50 in the experiment on T-cell of 2370 nM.

In the case of `C=C1C(=O)O[C@H]2[C@H]1CC/C(CNS(=O)(=O)C(F)(F)F)=C\CC[C@@]1(C)O[C@@H]21`, the AC50 at Pyruvate kinase PKM was greater than 3000 nM. Besides, the IC50 in the experiment with T-cell was found to be 2980 nM.

Regarding `Nc1ccc(O)c(C(=O)O)c1`, the result in the experiment with Mus musculus was Active. `C=C1C(=O)O[C@H]2[C@H]1C[C@@H](Br)/C(C)=C/CC[C@@]1(C)O[C@@H]21` displayed an IC50 in the experiment with T-cell of 3840 nM. As for `C=C1C(=O)O[C@H]2[C@H]1CC/C(CNS(=O)(=O)c1ccc(F)cc1)=C\CC[C@@]1(C)O[C@@H]21`, the AC50 on Pyruvate kinase PKM was 1230 nM. This compound returned an IC50 in the experiment on T-cell of 1500 nM.

Turning to `C=C1C(=O)O[C@H]2[C@H]1CC/C(COC)=C\CC[C@@]1(C)O[C@@H]21`, the AC50 on Pyruvate kinase PKM is greater than 3000 nM. The midpoint of inhibition in the experiment on T-cell, the IC50, lay at 2330 nM. Take `C=C1C(=O)O[C@H]2[C@H]1C[C@@H](F)/C(C)=C/CC[C@@]1(C)O[C@@H]21`: the concentration at half-maximal activity (AC50) at Pyruvate kinase PKM is greater than 3000 nM. The IC50 in the experiment on T-cell stood at 2370 nM. Take `C=C1C(=O)O[C@H]2[C@H]1CC/C(COC(=O)N1CCCC1)=C\CC[C@@]1(C)O[C@@H]21`: on Pyruvate kinase PKM, the AC50 came out at 736 nM. Also, the IC50 in the experiment with T-cell was 1780 nM. In the experiment with T-cell, `C=C1C(=O)O[C@H]2[C@H]1C[C@@H](O)/C(C)=C/CC[C@@]1(C)O[C@@H]21` showed an IC50 of 3470 nM.

Consider `C/C1=C\CC[C@@]2(C)O[C@H]2[C@H]2OC(=O)/C(=C/c3ccccc3)[C@@H]2CC1`, for which the IC50 in the experiment on T-cell worked out at 4270 nM. For the compound `C=C1C(=O)O[C@H]2[C@H]1CC/C(COC(=O)N1CCN(C)CC1)=C\CC[C@@]1(C)O[C@@H]21`, the AC50 on Pyruvate kinase PKM is 567 nM. Further, inhibition in the experiment on T-cell was half-maximal at 1040 nM (IC50). Turning to `C=C1C(=O)O[C@H]2[C@H]1CC/C(COC(=O)NOC)=C\CC[C@@]1(C)O[C@@H]21`, the AC50 at Pyruvate kinase PKM is greater than 3000 nM. Also, the midpoint of inhibition in the experiment with T-cell, the IC50, lay at 2340 nM. With `C=C1C(=O)O[C@H]2[C@H]1CC/C(CO)=C\CC[C@@]1(C)O[C@@H]21`, the AC50 at Pyruvate kinase PKM worked out at 867 nM. This compound also gave an IC50 in the experiment on T-cell of 1590 nM. Turning to `C=C1C(=O)O[C@H]2[C@H]1CC/C(CNS(C)(=O)=O)=C\CC[C@@]1(C)O[C@@H]21`, the AC50 at Pyruvate kinase PKM was greater than 3000 nM. This compound also displayed an IC50 in the experiment with T-cell of 3150 nM.

Compound `C=C1C(=O)O[C@H]2[C@H]1CC/C(C(=O)O)=C\CC[C@@]1(C)O[C@@H]21` yielded an IC50 with T-cell greater than 10000 nM. On to `C=C1C(=O)O[C@@H]2C3O[C@]3(C)CC/C=C(\C)CC[C@@H]12` (some centres undefined), for which the AC50 on Pyruvate kinase PKM came to 1060 nM. In addition, the midpoint of inhibition in the experiment on T-cell, the IC50, lay at 1960 nM. Taken in the same sequence, the figures for `C=C1C(=O)O[C@H]2[C@H]1CC/C(CNS(=O)(=O)c1ccc([N+](=O)[O-])cc1)=C\CC[C@@]1(C)O[C@@H]21` were 966 nM and 1320 nM.

Turning to `C=C1C(=O)O[C@H]2[C@H]1CC/C(CNS(=O)(=O)C1CC1)=C\CC[C@@]1(C)O[C@@H]21`, the AC50 on Pyruvate kinase PKM is greater than 3000 nM. The IC50 with T-cell worked out at 2650 nM.

In turn, `COc1ccc(/C=C2/C(=O)O[C@H]3[C@H]2CC/C(C)=C/CC[C@@]2(C)O[C@@H]32)cc1` displayed an IC50 with T-cell of 4600 nM. As to `C=C1C(=O)O[C@H]2[C@H]1CC/C(COC(=O)N(C)C)=C\CC[C@@]1(C)O[C@@H]21`, on Pyruvate kinase PKM, the AC50 came out at 1570 nM. In addition, in the experiment with T-cell, half-maximal inhibition (IC50) required 1630 nM.

Consider `C=C1C(=O)O[C@H]2[C@H]1CC/C(COC(=O)N(CCC)CCC)=C\CC[C@@]1(C)O[C@@H]21`, for which the AC50 at Pyruvate kinase PKM stood at 660 nM. Besides, half-maximal inhibition in the experiment on T-cell (IC50) required 1180 nM. With `C/C1=C\CC[C@@]2(C)O[C@H]2[C@H]2OC(=O)/C(=C/c3cccc4ccccc34)[C@@H]2CC1`, it took 4530 nM to reach half-maximal inhibition with T-cell (IC50). As for `C=C1C(=O)O[C@H]2[C@H]1CC/C(COC(=O)NC)=C\CC[C@@]1(C)O[C@@H]21`, the concentration at half-maximal activity (AC50) on Pyruvate kinase PKM is greater than 3000 nM. For the same compound, the IC50 in the experiment with T-cell came to 2600 nM.

With `C=C1C(=O)O[C@H]2[C@H]1CC/C(COC(=O)NCC)=C\CC[C@@]1(C)O[C@@H]21`, the AC50 on Pyruvate kinase PKM was determined as 2220 nM. Also, the IC50 in the experiment with T-cell was found to be 1700 nM. Taken in the same sequence, the figures for `C=C1C(=O)O[C@H]2[C@H]1CC/C(COC(=O)NCCN(C)C)=C\CC[C@@]1(C)O[C@@H]21` were greater than 3000 nM and 2880 nM.

With `C=C1C(=O)O[C@H]2[C@H]1CC/C(CNS(=O)(=O)c1ccc(OC)cc1)=C\CC[C@@]1(C)O[C@@H]21`, at Pyruvate kinase PKM, the AC50 came to 492 nM. This compound also had an IC50 with T-cell of 1040 nM. Taken in the same sequence, the figures for `C=C1C(=O)O[C@H]2[C@H]1CC/C(COC(=O)NCCN(CC)CC)=C\CC[C@@]1(C)O[C@@H]21` were greater than 3000 nM and 2520 nM. Taken in the same sequence, the figures for `C=C1C(=O)O[C@H]2[C@H]1CC/C(CNS(=O)(=O)CC)=C\CC[C@@]1(C)O[C@@H]21` were greater than 3000 nM and 2970 nM.
